The record followed here is patent US12624057B2, “Bisphosphonate quinolone conjugates and uses thereof” (BIOVINC, LLC, priority 2016, dated 2026).

Entries after “also recorded” stand apart in the source; their conditions may differ. Like-named read-outs stand apart in the source and are kept apart here.

The subject of assay [1] is S. aureus ATCC6538 biofilms. The assay is described as follows: Survival of S. aureus biofilm on pretreated, rinsed HA discs. Conditions: for times more active than ciprofloxacin alone in achieving complete bactericidal action: allowing for molecular mass; for ability to prevent biofilm formation on pretreated HA (in words): pretreated HA discs; for concentration that inhibited all biofilm growth: pretreated, rinsed HA discs. In kind it is cell-based, Staphylococcus aureus. Here is the method:
HA discs incubated in DMSO or phosphate buffer served as control samples. Next, discs were rinsed 3 times with sterile water. After rinsing, 2 mL of 0.5 MF of. S. aureus ATCC6538 were introduced to wells containing HA discs as a substrate for biofilm development and biofilms were formed as before.

In assay [2] the test system is biofilms of P. aeruginosa strain ATCC-15442. Kind of assay: Preformed biofilms on HA discs, P. aeruginosa. It counts as cell-based, Pseudomonas aeruginosa. Here is the method: Antimicrobial susceptibility testing of BP-ciprofloxacin against preformed biofilms of S. aureus strain ATCC-6538 and P. aeruginosa strain ATCC-15442: Strains cultured on appropriate agar plates (Columbia agar plate for S. aureus; MacConkey agar plate for P. aeruginosa) were transferred to liquid microbiological media and incubated for 24 h/37° C. under aerobic conditions. After incubation, strains were diluted to the density of 1 MF. The microbial dilutions were introduced to wells of 24-well plates containing HA discs as a substrate, or simply to polystyrene wells where the bottom surface of the wells served as the substrate for biofilm development. Strains were incubated at 37° C. for 4 hrs. Next, the microbe-containing solutions were removed from the wells. The surfaces, HA discs and polystyrene plates, were gently rinsed to leave adhered cells and to remove planktonic or loosely-bound microbes. Surfaces prepared in this manner were immersed in fresh TSB medium containing 0.24-125 mg/L of BP-ciprofloxacin conjugate. After 24 hrs of incubation at 37° C. the surfaces were rinsed using physiological saline solution and transferred to 1 mL of 0.5% saponin (Sigma-Aldrich, St Louis, MO). The surfaces were vortex-mixed vigorously for 1 minute to detach cells. Subsequently, all microbial suspensions were diluted 10 to 10^9 times. Each dilution ([…]) was cultured on the appropriate stable medium (MacConkey, Columbia for P. aeruginosa and S. aureus, respectively) and incubated at 37-C for 24 hours. After this time, the microbial colonies were counted and the number of cells forming biofilm was assessed. Results were presented as the mean number of CFU per square millimeter surface±standard error of the mean. To estimate the exact surface area of HA discs, x-ray tomographic analysis was applied. For estimation of the area of test plate bottoms, the equation for circle area: πr2 was applied.
Antimicrobial susceptibility testing of 6 against preformed biofilms of S. aureus strain ATCC-6538 and P. aeruginosa strain ATCC-15442: Strains cultured on appropriate agar plates (Columbia agar plate for S. aureus; MacConkey agar plate for P. aeruginosa) were transferred to liquid microbiological media and incubated for 24 hrs/37° C. under aerobic conditions. After incubation, strains were diluted to the density of 1 MF. The microbial dilutions were introduced to wells of 24-well plates containing HA discs as a substrate, or simply to polystyrene wells where the bottom surface of the wells served as the substrate for biofilm development. Strains were incubated at 37° C. for 4 hrs. Next, the microbe-containing solutions were removed from the wells. The surfaces, HA discs and polystyrene plates, were gently rinsed to leave adhered cells and to remove planktonic or loosely-bound microbes. […] After 24 hrs of incubation at 37° C. the surfaces were rinsed using physiological saline solution and transferred to 1 mL of 0.5% saponin (Sigma-Aldrich, St Louis, MO). The surfaces were vortex-mixed vigorously for 1 minute to detach cells. Subsequently, all microbial suspensions were diluted 10-1 to 10-9 times. Each dilution ([…]) was cultured on the appropriate stable medium (MacConkey, Columbia for P. aeruginosa and S. aureus, respectively) and incubated at 37° C. for 24 hrs. After this time, the microbial colonies were counted and the number of cells forming biofilm was assessed. Results were presented as the mean number of CFU per square millimeter surface±standard error of the mean. […]

The test system of assay [3] is Aggregatibacter actinomycetemcomitans biofilms on titanium implants. Kind of assay: Rat jawbone peri-implant osteomyelitis model, first animal experiment. It counts as in vivo, Sprague-Dawley rats. Conditions: for activity compared with ciprofloxacin in multiple doses (in words): conjugate 10 mg/kg single dose versus ciprofloxacin 30 mg/kg total; for efficacy (in words): single dose 0.1 and 1 mg/kg. From the text:
Since this BP-ciprofloxacin conjugate is novel and has not been tested in vivo, we performed an initial safety and efficacy study in an animal model of peri-implant osteomyelitis. This model is a unique in-house jawbone peri-implant osteomyelitis model that was developed specifically for translational value to study biofilm-mediated disease and host response in vivo (Freire, et al, Development of animal model for Aggregatibacter actinomycetemcomitans biofilm-mediated oral osteolytic infection: a preliminary study. J Periodontol 2011; 82:778-89). […] After biofilms are established on the implants in vitro, they are surgically transferred to the jawbone of each rat. Animals are anesthetized, the cheeks are retracted and a transmucosal osteotomy is performed so implants can be manually inserted into the osteotomy and secured. Two biofilm-inoculated implants are placed in each rat (n=12 rats and 24 implants) in the palatal bone bilaterally.
To determine appropriate dosing concentrations, we calculated approximate initial doses for the conjugate based on previous studies and pharmacokinetic data using similar target and release strategies and also rodents (Houghton, et al., Linking bisphosphonates to the free amino groups in fluoroquinolones: preparation of osteotropic prodrugs for the prevention of osteomyelitis. J Med Chem 2008; 51:6955-69; Morioka, et al., Design, synthesis, and biological evaluation of novel estradiol-bisphosphonate conjugates as bone-specific estrogens. Bioorg Med Chem 2010; 18:1143-8). We expected that increasing doses of 0.1, 1 and 10 mg/kg BP-ciprofloxacin molar equivalents will allow us to determine antimicrobial activity in 2 test animals per group based on sample size estimations and previous experience with the animal model (Freire, et al, Development of animal model for Aggregatibacter actinomycetemcomitans biofilm-mediated oral osteolytic infection: a preliminary study. J Periodontol 2011; 82:778-89). Animals were dosed via intraperitoneal injection under general anesthesia, and all compounds were constituted in sterile physiological injectable saline at appropriate pH. One week after pharmacotherapy, all animals were sacrificed and resection of peri-implant tissues was performed, and tissues were immediately homogenized and processed for quantitative assessment of microbial load. Animals were monitored throughout the study period for local or systemic adverse effects of pharmacotherapy.
This animal model is an in-house jawbone peri-implant osteomyelitis model designed specifically to study biofilm-mediated disease and host response in vivo (Freire, et al, Development of animal model for Aggregatibacter actinomycetemcomitans biofilm-mediated oral osteolytic infection: a preliminary study. J Periodontol 2011; 82:778-89). […] After biofilms were established on the implants in vitro, they were surgically transferred to the jawbone of each rat. For surgery, animals were anesthetized with 4% isoflurane inhalant initially followed by intraperitoneal injection of ketamine (80-90 mg/kg) plus xylazine (5-10 mg/kg). Then local anesthesia was given via infiltration injection of bupivicaine 0.25% at the surgical site. Buprenorphine sustained release (1.0-1.2 mg/kg) was then given subcutaneously as preemptive analgesia before making initial incisions. Once anesthetized, the buccal mucosa of each rat was retracted and a transmucosal osteotomy was performed with a pilot drill into the alveolar ridge in the natural diastema of the anterior palate. Implants were then manually inserted into the osteotomy and secured into the bone until the platform is at mucosal level.

[4] abbreviates: 24 hrs of growth (Examples 5, 6).
[5] abbreviates: conjugate, single dose 10 mg/kg intraperitoneal.
Setting [6] is: ciprofloxacin, 10 mg/kg 3×/week (30 mg/kg total).

As to `O=C(O)c1cn(C2CC2)c2cc(N3CCN(C(=O)Oc4ccc(CC(P(=O)(O)O)P(=O)(O)O)cc4)CC3)c(F)cc2c1=O` [Compound 6, 1-cyclopropyl-7-(4-((4-(2,2-diphosphonoethyl)phenoxy)carbonyl)piperazin-1-yl)-6-fluoro-4-oxo-1,4-dihydroquinoline-3-carboxylic acid], the “times more active than ciprofloxacin alone in achieving complete bactericidal action” value in assay [1] and in assay [1] (listed as BP-ciprofloxacin) was 20 throughout. In addition, the “ability to prevent biofilm formation on pretreated HA (in words)” value in assay [1] is recorded as “superior antimicrobial activity”; in assay [1] (listed as BCC) it was “inhibited”. The “concentration that inhibited all biofilm growth” value in assay [1] (24 hrs of growth (Example 1)) and in assay [1] (setting [4]) was 10 µg/mL throughout. Besides, the “concentration at which bactericidal” value amounted to 50 µg/mL in assay [2] (acidic and basic conditions (Example 1)); 50 µg/mL in assay [2] (acidic and physiological conditions (Example 5)). Further, the “activity against P. aeruginosa biofilm (in words)” value in assay [2] (listed as conjugate) is listed as “improved bactericidal activity in basic conditions; also recorded: improved bactericidal activity in physiological conditions”. The “concentration at which most effective” value in assay [2] (physiological pH, also effective at acidic pH) was 8 µg/mL. Besides, in assay [3] (conjugate 10 mg/kg single dose), the “greater bactericidal activity than multiple dosing of ciprofloxacin” value was ~1 log. Besides, the “activity compared with ciprofloxacin in multiple doses (in words)” value in assay [3] is “nearly an order of magnitude greater activity than ciprofloxacin alone”; in assay [3] (listed as BCC), “an order of magnitude greater activity than the parent antibiotic ciprofloxacin alone; also recorded: approximately as effective as ciprofloxacin given at 30 mg/kg total dose”; in assay [3] (listed as BP-ciprofloxacin), “more than an order of magnitude greater activity than ciprofloxacin alone; also recorded: superior to multiple dosing of the parent antibiotic ciprofloxacin”. Moreover, in assay [3] (setting [5]), the “bacterial killing / bactericidal activity” value worked out at 99%. Moreover, the “reduction of bacterial load versus negative control” value in assay [3] (setting [5]) was determined as 2 log. In addition, the “efficacy (in words)” value in assay [3] (conjugate) was “little effect; also recorded: no efficacy; also recorded: ineffective”; in assay [3] (conjugate, listed as BP-ciprofloxacin), “little effect; also recorded: not efficacious”.
Regarding `O=C(O)c1cn(C2CC2)c2cc(N3CCNCC3)c(F)cc2c1=O` [ciprofloxacin, reference compound], in assay [1] (24 hrs of growth (Example 1)), the “concentration that inhibited all biofilm growth” value came out at 100 µg/mL. Besides, the “concentration that inhibited all biofilm growth” value in assay [1] (setting [4]) came out at 100 µg/mL. Besides, the “activity against P. aeruginosa biofilm (in words)” value in assay [2] was “no inhibitory or bactericidal activity; also recorded: inactive under either acidic or physiological conditions”. Further, in assay [3] (setting [6]), the bacterial killing is 90% and the “reduction of bacterial load” value came to 1 log.
